Measured values from ChEMBL document CHEMBL5241090, “A comprehensive overview of β-carbolines and its derivatives as anticancer agents” (Eur J Med Chem, 2021).
Values after ≈ are worked out from the molar mass of the structure shown.

Columns and labels:
[1] = test system: A549; test: Cytotoxicity against human A549 cells; assay type: functional, cell-based
[2] = test system: HL-60; test: Cytotoxicity against human HL-60 cells; assay type: functional, cell-based; details: Homo sapiens, HL-60; read-out: IC50
[3] = test system: HCT-116; test: Cytotoxicity against human HCT-116 cells; assay type: functional, cell-based
[4] = test system: NCI-H1299; test: Cytotoxicity against human NCI-H1299 cells; assay type: functional, cell-based
[5] = Cytotoxicity against mouse P388 cells; assay type: functional, cell-based
[6] = test system: L5178Y; test: Cytotoxicity against mouse L5178Y cells incubated 72 hrs; assay type: functional, cell-based; details: for EC50: time 72 hrs, read-out: ED50 (the source's name); for IC50: 72 h
[7] = test system: L1210; test: Cytotoxicity against mouse L1210 cells; assay type: functional, cell-based
[8] = test system: CNE-2; test: Cytotoxicity against human CNE-2 cells incubated for 48 hrs by MTT assay; assay type: functional, cell-based; details: CNE-2, 48 h
[9] = test system: SK-OV-3; test: Antiproliferative activity against human SK-OV-3 cells; assay type: functional, cell-based
[10] = test system: A2780; test: Antiproliferative activity against human A2780 cells; assay type: functional, cell-based
[11] = biological target: T1, DNA topoisomerase 1 (Homo sapiens, UniProt P11387); test: Inhibition of Topoisomerase 1 (unknown origin)
T1 sequence (P11387 whole entry): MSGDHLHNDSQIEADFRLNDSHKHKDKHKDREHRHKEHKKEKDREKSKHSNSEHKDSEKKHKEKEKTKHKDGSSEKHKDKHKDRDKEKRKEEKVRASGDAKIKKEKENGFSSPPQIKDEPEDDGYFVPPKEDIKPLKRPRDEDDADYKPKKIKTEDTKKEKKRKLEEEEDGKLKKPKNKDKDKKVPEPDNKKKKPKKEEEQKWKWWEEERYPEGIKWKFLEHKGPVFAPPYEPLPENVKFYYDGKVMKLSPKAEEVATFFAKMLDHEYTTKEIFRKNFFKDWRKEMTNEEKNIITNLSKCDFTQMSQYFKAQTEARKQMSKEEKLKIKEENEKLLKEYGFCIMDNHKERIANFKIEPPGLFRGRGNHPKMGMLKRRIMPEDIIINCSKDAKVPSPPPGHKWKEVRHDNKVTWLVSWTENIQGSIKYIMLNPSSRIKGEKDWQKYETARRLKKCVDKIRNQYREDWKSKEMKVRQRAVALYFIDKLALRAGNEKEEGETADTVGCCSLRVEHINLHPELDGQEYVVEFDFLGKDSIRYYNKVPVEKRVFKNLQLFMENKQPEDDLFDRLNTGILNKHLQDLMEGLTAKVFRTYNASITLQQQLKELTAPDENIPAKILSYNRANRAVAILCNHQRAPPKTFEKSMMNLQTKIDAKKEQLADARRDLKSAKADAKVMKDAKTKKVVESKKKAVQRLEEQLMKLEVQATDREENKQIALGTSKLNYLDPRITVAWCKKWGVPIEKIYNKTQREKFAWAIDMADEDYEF

[12] = test system: KB; test: Cytotoxicity against human Vincristine-resistant KB cells; assay type: functional, cell-based; details: pooled result: one value given for 6 cell lines, strains, targets or settings
[13] = test system: A549; test: Growth inhibition of human A549 cells incubated for 72 hrs by SRB assay; assay type: functional, cell-based; details: A549, 72 h
[14] = test system: MDA-MB-231; test: Growth inhibition of human MDA-MB-231 cells incubated for 72 hrs by SRB assay; assay type: functional, cell-based; details: MDA-MB-231, 72 h
[15] = test system: HT-29; test: Growth inhibition of human HT-29 cells incubated for 72 hrs by SRB assay; assay type: functional, cell-based; details: HT-29, 72 h
[16] = test system: Panel NCI-60 (60 carcinoma cell lines); test: Cytotoxicity against human Panel NCI-60 (60 carcinoma cell lines); assay type: functional, cell-based
[17] = test system: MCF7; test: Cytotoxicity against human MCF7 cells; assay type: functional, cell-based
[18] = test system: HCT-116; test: Cytotoxicity against human HCT-116 cells incubated for 48 hrs by neutral red dye based assay; assay type: functional, cell-based; details: HCT-116, 48 h
[19] = test system: A549; test: Cytotoxicity against human A549 cells incubated for 48 hrs by neutral red dye based assay; assay type: functional, cell-based; details: A549, 48 h
[20] = test system: MCF7; test: Cytotoxicity against human MCF7 cells incubated for 48 hrs by neutral red dye based assay; assay type: functional, cell-based; details: MCF7, 48 h
[21] = test system: KB; test: Cytotoxicity against human KB cells; assay type: functional, cell-based; details: Homo sapiens, KB; read-out: IC50

## Nc1nccc(-c2nccc3c2[nH]c2c([C@@H]4c5ccccc5N=C5[C@@H](O)CCN54)c(O)ccc23)n1
[1]
  IC50: 55.7 µM
[2]
  IC50: 39 µM

## COc1ccc(CCNC(=O)c2cc3c([nH]c4ccccc43)c(C(C)=O)n2)cc1 [MARINACARBOLINE A]
[3]
  IC50: 24.4 µM
[1]
  IC50: 24.4 µM
[4]
  IC50: 24.4 µM

## COc1ccc2c(c1)NC1C2CCN2C(=O)[C@]34C5Nc6cc(OC)ccc6C5CCN3[C@]12C4(C)C (stereo partly drawn)
[2]
  IC50: 5.8 µM

## N[C@@H]1CSCON2CCc3c([nH]c4cc(Br)ccc34)[C@H]12
[5]
  IC50: 0.01 µg/mL (≈ 0.0282 µM)

## O[C@]12C=C(c3nccc4c3[nH]c3ccccc34)[C@@H]3CCN(CCCC/C=C\CC1)C[C@@]31C[C@@H]3/C=C\CCCCN3[C@H]12 [MANZAMINE A]
[5]
  IC50: 0.07 µg/mL (≈ 0.128 µM)

## [O-][n+]1ccc2c([nH]c3ccccc32)c1C1=C[C@@]2(O)CC/C=C\CCCCN3CC[C@@H]1[C@]1(CC/C=C\CCCCN[C@H]12)C3
[6]
  EC50: 3.2 µg/mL (≈ 5.65 µM)

## O[C@]12C=C(c3nccc4c3[nH]c3ccccc34)[C@@H]3CCN(CCCC/C=C\CC1)C[C@@]31CC/C=C\CCCCN[C@H]12 [MANZAMINE J]
[7]
  IC50: 2.6 µg/mL (≈ 4.72 µM)

## O=c1ccc2nccc3c4cccc(O)c4n1c23
[8]
  IC50: 13.4 µg/mL (≈ 56.9 µM)

## C=Cc1nccc2c1[nH]c1c(O)cccc12
[5]
  IC50: 0.1 µg/mL (≈ 0.476 µM)

## C=Cc1ncc(OC)c2c1[nH]c1c(O)cccc12
[9]
  IC50: 16.3 µM
[10]
  IC50: 8.47 µM

## O=C1CCCCN2[C@@H](C1)C[C@]13CN4CCCC/C=C\CC[C@](O)(C=C(c5nccc6c5[nH]c5c(O)cccc56)[C@@H]1CC4)[C@H]23
[5]
  IC50: 5 µg/mL (≈ 8.61 µM)

## Cn1c2cnccc2c2c(Br)c(O)ccc21
[6]
  IC50: 1.8 µg/mL (≈ 6.5 µM)
[7]
  IC50: 2.4 µg/mL (≈ 8.66 µM)

## c1ccc2c(c1)[nH]c1cnccc12 [NORHARMANE]
[11]
  IC50: 31 µM

## COc1c(O)c(=O)n2c3ccccc3c3ccnc1c32
[8]
  IC50: 7.96 µg/mL (≈ 29.9 µM)

## O=c1ccc2c3c(cc[n+]2[O-])c2ccc(O)cc2n13
[12]
  IC50: 3.5 µg/mL (≈ 13.9 µM)
[5]
  IC50: 3.5 µg/mL (≈ 13.9 µM)

## COc1c(OC)c2nccc3c4ccccc4n(c1=O)c23 [4,5-DIMETHOXYCANTHIN-6-ONE]
[8]
  IC50: 9.86 µg/mL (≈ 35.2 µM)

## COc1ccc2c3c([nH]c2c1)[C@]1(NCC3)C(C)=C(C)c2nc3ccccc3c(=O)n21
[2]
  IC50: 9.4 µM

## COc1ccc2[nH]c3cnc(-c4c[nH]c5cc(O)ccc45)c(C(=O)O)c3c2c1
[13]
  IC50: 100 µg/mL (≈ 268 µM)
[14]
  IC50: 90 µg/mL (≈ 241 µM)
[15]
  IC50: 35 µg/mL (≈ 93.7 µM)

## COc1ccc2nc(-c3cc4c([nH]c5ccccc54)c(-c4ccc(F)c(F)c4)n3)[nH]c2c1
[16]
  IC50: 0.3 µM

## C[n+]1ccc2c3ccccc3n3c2c1CC(=O)C3=O
[8]
  IC50: 23.7 µg/mL

## COc1ccc(-c2nc(-c3nc4ccc(F)cc4[nH]3)cc3c2[nH]c2ccccc23)cc1
[16]
  IC50: 0.3 µM

## CN[C@H](CSC)c1nccc2c1[nH]c1ccc(O)c(Br)c12 [EUDISTOMIDIN C]
[6]
  IC50: 0.42 µg/mL (≈ 1.15 µM)

## C=Cc1ncc(OC)c2c1[nH]c1ccccc12
[9]
  IC50: 15.7 µg/mL
[10]
  IC50: 4.77 µg/mL

## CC(C=O)CNc1nccc(-c2nccc3c2[nH]c2ccccc23)n1 (stereo not drawn)
[3]
  IC50: 3.35 µM
[17]
  IC50: 6.05 µM

## Nc1nccc(-c2nccc3c2[nH]c2ccccc23)n1 [ANNOMONTINE]
[18]
  IC50: 0.42 µg/mL (≈ 1.61 µM)
[19]
  IC50: 1.09 µg/mL (≈ 4.17 µM)
[20]
  IC50: 1.21 µg/mL (≈ 4.63 µM)

## COc1cccc2c1C(=O)c1c(O)c3c(c(O)c1C2=O)C[C@@](O)(C(=O)CO)C[C@@H]3O[C@H]1C[C@H](N)[C@H](O)[C@H](C)O1 [DOXORUBICIN]
[3]
  IC50: 0.39 µM

## Oc1ccc2[nH]c3c(C4=C[C@@]5(O)CC/C=C\CCCCN6CC[C@@H]4[C@]4(CC7/C=C\CCCCN7[C@H]45)C6)nccc3c2c1 (stereo partly drawn)
[21]
  IC50: 7.3 µg/mL (≈ 12.9 µM)

## Oc1ccc2[nH]c3c(C4=C[C@@]5(O)CC/C=C\CCCCN6CC[C@@H]4[C@]4(C[C@@H]7/C=C\CCCCN7[C@H]45)C6)nccc3c2c1 [MANZAMINE Y]
[7]
  IC50: 1.5 µg/mL (≈ 2.66 µM)
[21]
  IC50: 2.5 µg/mL (≈ 4.43 µM)

## [O-][N+]1=C(C2=C[C@@]3(O)CC/C=C\CCCCN4CC[C@@H]2[C@]2(CC5/C=C\CCCCN5[C@H]23)C4)c2[nH]c3ccccc3c2CC1 (stereo partly drawn)
[6]
  EC50: 1.6 µg/mL (≈ 2.82 µM)

## COc1cc(-c2nc(C(=O)N[C@@H](Cc3c[nH]c4ccccc34)C(=O)N[C@@H](Cc3c[nH]c4ccccc34)C(=O)N[C@@H](CCSC)C(=O)OCc3ccccc3)cc3c2[nH]c2ccccc23)ccc1O
[2]
  IC50: 16 µM
